Legend:
KAI3 (IL-2 2.5 ng/mL) [1] = assay: drug sensitivity score (DSS) (DSS units); higher = more sensitive; extreme values may be limits of the assay; conditions: 72 h
[2] = system: normal primary NK cells, pool 1 (3 donors), resting (IL-2 0 ng/mL); assay: as above; conditions: 72 h
[3] = system: normal primary NK cells, pool 1 (3 donors) (IL-2 2.5 ng/mL); assay: as above; conditions: 72 h
[4] = system: normal primary NK cells, pool 2 (3 donors) (IL-2 2.5 ng/mL); assay: as above; conditions: 72 h
IMC-1 (IL-2 20 ng/mL) [5] = assay: as above; conditions: 72 h
[6] = system: normal primary NK cells, pool 3 (3 donors) (IL-2 2.5 ng/mL); assay: as above; conditions: 72 h
NK-YS (IL-2 2.5 ng/mL) [7] = assay: as above; conditions: 72 h
YT (IL-2 2.5 ng/mL) [8] = assay: as above; conditions: 72 h
NK-92 (IL-2 2.5 ng/mL) [9] = assay: as above; conditions: 72 h
KHYG-1 (IL-2 2.5 ng/mL) [10] = assay: as above; conditions: 72 h
NKL (IL-2 2.5 ng/mL) [11] = assay: as above; conditions: 72 h
DERL-7 (IL-2 2.5 ng/mL) [12] = assay: as above; conditions: 72 h
SNK-6 (IL-2 2.5 ng/mL) [13] = assay: as above; conditions: 72 h
[14] = system: normal NK cells expanded with K562-aAPC; assay: as above; conditions: 72 h; IL-2 2.5 ng/mL
Description: (§1)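 Drug sensitivity and resistance testing on K562-aAPC-expanded normal NK cells: 5 concentrations (10-fold steps over a 10,000-fold range), 72 h at 37 °C, viability by CellTiter-Glo normalised to DMSO and benzethonium chloride controls; DSS from the fitted curve.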

KAI3 (IL-2 2.5 ng/mL) [15] = assay: percent inhibition of viability; higher = more inhibition; conditions: 72 h
[16] = system: normal primary NK cells, pool 1 (3 donors), resting (IL-2 0 ng/mL); assay: as above; conditions: 72 h
[17] = system: normal primary NK cells, pool 1 (3 donors) (IL-2 2.5 ng/mL); assay: as above; conditions: 72 h
[18] = system: normal primary NK cells, pool 2 (3 donors) (IL-2 2.5 ng/mL); assay: as above; conditions: 72 h
IMC-1 (IL-2 20 ng/mL) [19] = assay: as above; conditions: 72 h
[20] = system: normal primary NK cells, pool 3 (3 donors) (IL-2 2.5 ng/mL); assay: as above; conditions: 72 h
NK-YS (IL-2 2.5 ng/mL) [21] = assay: as above; conditions: 72 h
YT (IL-2 2.5 ng/mL) [22] = assay: as above; conditions: 72 h
NK-92 (IL-2 2.5 ng/mL) [23] = assay: as above; conditions: 72 h
KHYG-1 (IL-2 2.5 ng/mL) [24] = assay: as above; conditions: 72 h
NKL (IL-2 2.5 ng/mL) [25] = assay: as above; conditions: 72 h
DERL-7 (IL-2 2.5 ng/mL) [26] = assay: as above; conditions: 72 h
SNK-6 (IL-2 2.5 ng/mL) [27] = assay: as above; conditions: 72 h
[28] = system: normal NK cells expanded with K562-aAPC; assay: as above; conditions: 72 h, IL-2 2.5 ng/mL
Description: as §1

S=C(NCc1ccc2c(c1)OCO2)N1CCN(c2ncnc3c2oc2ccccc23)CC1 [Amuvatinib] (max concentration tested 10000 nM)
Conditions | drug sensitivity score
DERL-7 (IL-2 2.5 ng/mL) [12] | 12.9
IMC-1 (IL-2 20 ng/mL) [5] | 7.59
KAI3 (IL-2 2.5 ng/mL) [1] | 4.97
KHYG-1 (IL-2 2.5 ng/mL) [10] | 7.56
NK-92 (IL-2 2.5 ng/mL) [9] | 8.04
NK-YS (IL-2 2.5 ng/mL) [7] | 7.16
NKL (IL-2 2.5 ng/mL) [11] | 11.7
SNK-6 (IL-2 2.5 ng/mL) [13] | 9.4
YT (IL-2 2.5 ng/mL) [8] | 4.88
[2] | 8.27
[3] | 7.49
[4] | 5.67
[6] | 5.25
[14] | 0.55

percent inhibition of viability [%]
Conditions | 1 nM | 10 nM | 100 nM | 1000 nM | 10000 nM
DERL-7 (IL-2 2.5 ng/mL) [26] | 0.19 | 2.67 | 18 | 55.9 | 90.5
IMC-1 (IL-2 20 ng/mL) [19] | -1.71 | -0.29 | 1.01 | 41.2 | 44.1
KAI3 (IL-2 2.5 ng/mL) [15] | 3.55 | -2.41 | 7.21 | 17.6 | 54.5
KHYG-1 (IL-2 2.5 ng/mL) [24] | -5.63 | -5.61 | -1.04 | 24.3 | 73.6
NK-92 (IL-2 2.5 ng/mL) [23] | -8.12 | -11.4 | -3.54 | 36.4 | 65.1
NK-YS (IL-2 2.5 ng/mL) [21] | -2.83 | -6.84 | -2.71 | 12.6 | 91
NKL (IL-2 2.5 ng/mL) [25] | -10.5 | -7.21 | 6.91 | 53.6 | 95
SNK-6 (IL-2 2.5 ng/mL) [27] | 13.3 | -6.01 | 16.5 | 40.9 | 60.9
YT (IL-2 2.5 ng/mL) [22] | -2.59 | -1.83 | 3.31 | 19.5 | 49.5
[16] | 7.55 | 15.6 | 5.58 | 28.6 | 83.9
[17] | -0.46 | 10.3 | 3.46 | 19.5 | 80.3
[18] | -4.53 | 2.76 | 7.13 | 11.1 | 69.2
[20] | -1.07 | 8.45 | 6.14 | 11.8 | 60.8
[28] | -2.56 | -1.86 | -4.91 | 0.6 | 18.6

CCNC(=O)Nc1ccc(-c2nc3c(c(N4CCOC[C@@H]4C)n2)CCN(C2COC2)C3)cc1 [RG-7603] (max concentration tested 2500 nM)
Conditions | drug sensitivity score
DERL-7 (IL-2 2.5 ng/mL) [12] | 8.64
IMC-1 (IL-2 20 ng/mL) [5] | 0.89
KAI3 (IL-2 2.5 ng/mL) [1] | 5.07
KHYG-1 (IL-2 2.5 ng/mL) [10] | 1.86
NK-92 (IL-2 2.5 ng/mL) [9] | 3.67
NK-YS (IL-2 2.5 ng/mL) [7] | 4.64
NKL (IL-2 2.5 ng/mL) [11] | 7.13
SNK-6 (IL-2 2.5 ng/mL) [13] | 4.17
YT (IL-2 2.5 ng/mL) [8] | 3.15
[2] | 0.19
[3] | 2.37
[4] | 0.33
[6] | 0
[14] | 2.54

percent inhibition of viability [%]
Conditions | 0.25 nM | 2.5 nM | 25 nM | 250 nM | 2500 nM
DERL-7 (IL-2 2.5 ng/mL) [26] | -2.9 | 5.17 | 4.85 | 41.4 | 63.4
IMC-1 (IL-2 20 ng/mL) [19] | -2.39 | -0.65 | -9.05 | -18.6 | -57.2
KAI3 (IL-2 2.5 ng/mL) [15] | -2.16 | 10.2 | 4.9 | 24.3 | 45.1
KHYG-1 (IL-2 2.5 ng/mL) [24] | -4.71 | -3.78 | -6.03 | 6.5 | 24.9
NK-92 (IL-2 2.5 ng/mL) [23] | -10.2 | -10.6 | -15.4 | 17.8 | 33.1
NK-YS (IL-2 2.5 ng/mL) [21] | -8.96 | -4.62 | -4.67 | 17.1 | 44.4
NKL (IL-2 2.5 ng/mL) [25] | -16.4 | -9.21 | 1.54 | 34.9 | 54.6
SNK-6 (IL-2 2.5 ng/mL) [27] | 15 | 2.98 | -2.03 | 14.2 | 42.2
YT (IL-2 2.5 ng/mL) [22] | -0.19 | -2.47 | -0.44 | 8.66 | 37
[16] | -10.2 | -9.16 | 15.7 | 0.22 | 16
[17] | -9.72 | -0.76 | 9.2 | 14.6 | 21
[18] | -4.33 | -4.69 | -7.06 | 3.67 | 13.1
[20] | -5.74 | -6.13 | -4.3 | -0.62 | 10.1
[28] | -3.77 | -6.71 | -1.18 | 12.9 | 25.9

CCn1nnc2c(N3CCOCC3)nc(-c3ccc(NC(=O)Nc4ccc(C(=O)N5CCN(C)CC5)cc4)cc3)nc21 [PKI-402] (max concentration tested 2500 nM)
Conditions | drug sensitivity score
DERL-7 (IL-2 2.5 ng/mL) [12] | 15.9
IMC-1 (IL-2 20 ng/mL) [5] | 0.69
KAI3 (IL-2 2.5 ng/mL) [1] | 11.4
KHYG-1 (IL-2 2.5 ng/mL) [10] | 8.93
NK-92 (IL-2 2.5 ng/mL) [9] | 5.62
NK-YS (IL-2 2.5 ng/mL) [7] | 10.6
NKL (IL-2 2.5 ng/mL) [11] | 11.6
SNK-6 (IL-2 2.5 ng/mL) [13] | 6.93
YT (IL-2 2.5 ng/mL) [8] | 10.6
[2] | 7.08
[3] | 7.21
[4] | 3.74
[6] | 3.19
[14] | 4.52

percent inhibition of viability [%]
Conditions | 0.25 nM | 2.5 nM | 25 nM | 250 nM | 2500 nM
DERL-7 (IL-2 2.5 ng/mL) [26] | -1.72 | 1.39 | 10.1 | 79.5 | 93.8
IMC-1 (IL-2 20 ng/mL) [19] | -5.86 | -7.07 | -15 | -6.11 | 25.1
KAI3 (IL-2 2.5 ng/mL) [15] | -2.89 | -4.76 | 8.59 | 55.9 | 67.9
KHYG-1 (IL-2 2.5 ng/mL) [24] | -6.21 | -11 | -2.81 | 30.4 | 84.9
NK-92 (IL-2 2.5 ng/mL) [23] | -19.1 | -16.8 | -1.05 | 13.1 | 63.7
NK-YS (IL-2 2.5 ng/mL) [21] | -6.47 | -8.86 | 4.39 | 52 | 75.7
NKL (IL-2 2.5 ng/mL) [25] | -5.68 | -11.2 | 4.32 | 60 | 68.9
SNK-6 (IL-2 2.5 ng/mL) [27] | -8.78 | -15.4 | -7.51 | 33.2 | 54.5
YT (IL-2 2.5 ng/mL) [22] | -3.62 | -7.8 | 0.22 | 50.5 | 82.6
[16] | -7.29 | 0.44 | 14.9 | 31.1 | 26.7
[17] | 1.41 | -3.9 | 19.1 | 28.9 | 48.2
[18] | -8.91 | -3.82 | 2.65 | 17.3 | 38.4
[20] | -10.9 | -4.56 | 0.88 | 11 | 34.4
[28] | -5.93 | -8.28 | -5.99 | 11.4 | 51
